Experimental data published in ChEMBL document CHEMBL3124746, “Triazine Analogues as NS5B Inhibitors for the Treatment of HCV” (ACS Med Chem Lett, 2014).

Test system: Hepatitis C virus
Assay: Antiviral activity against HCV infected in human HuH7 cells assessed as inhibition of viral replication after 2 days by luciferase reporter gene assay
Type: functional, organism-based, Hepacivirus hominis
Details: Huh-7, 48 h

Row | Structure (SMILES) | EC50
1 | COC(=O)[C@@H](CCNC(=O)C(=O)Nc1cccc(OC(F)(F)F)c1)NC(=O)c1ccc(Nc2nc(NC3(c4ccc(Cl)cc4)CC3)nc(OCC(F)(F)F)n2)cc1 | 0.16 nM
2 | CNC(=O)C(=O)NC[C@@H](NC(=O)c1ccc(Nc2nc(NC3(c4ccc(Cl)cc4)CC3)nc(OCC(F)(F)F)n2)cc1)C(=O)O | 0.69 nM
